pIC50: −log10 of the molar value. Where “and” joins values, the source holds several entries; their conditions need not be identical. Equal entries are not always repeated. Where two headings read alike, the source gives them in different places.
Columns and labels:
[1] = test system: HCT-116 cells; assay: HCT-116 cell viability MTS assay; format: cell-based; conditions: Homo sapiens
Description: HCT-116 cell viability was examined by the MTS assay (Promega, Madison, Wis., USA). 2000 HCT-116 cells in 100 μL McCoy's 5a medium were seeded in each well of a 96-well plate. After 96-h incubation with a test compound, the cells were incubated with 20 μL of a MTS/PMS mixture (MTS/PMS ratio: 20: 1) for 2 h at 37° C. in a humidified incubator with 5% CO2 to allow viable cells to convert the tetrazolium salt (MTS) into formazan. The amount/concentration of formazan, which indicates the number of live cells, was determined by measuring the absorbance at 490 nm using a PerkinElmer Victor2 plate reader (PerkinElmer, Shelton, Cont., USA).

[2] = target: T1, GST-tAurora A (123-401aa) fusion protein (Homo sapiens, UniProt O14965); assay: Aurora Kinase A luminescent kinase assay; format: biochemical; conditions: IC50 (concentration of a test compound at which activity of 50% of Aurora A is inhibited)
T1 construct: GST-tAurora A (123-401aa) fusion protein; made in house; host or cells: Sf9 insect cells (baculovirus, pBacPAK8)
T1 sequence (O14965 123-401): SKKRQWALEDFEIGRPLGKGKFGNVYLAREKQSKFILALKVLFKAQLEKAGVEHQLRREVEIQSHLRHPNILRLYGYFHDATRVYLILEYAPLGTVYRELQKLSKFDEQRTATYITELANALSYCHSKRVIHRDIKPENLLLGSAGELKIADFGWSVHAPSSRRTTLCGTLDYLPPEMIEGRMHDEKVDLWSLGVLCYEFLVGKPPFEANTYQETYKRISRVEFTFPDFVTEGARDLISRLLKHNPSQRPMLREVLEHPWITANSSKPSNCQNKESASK
Description: The Aurora A catalytic domain with an N-terminal GST tag was constructed in pBacPAK8 plasmid and expressed in sf9 cells. […] To concentrate GST-tAurora A, buffer was replaced with Tris buffer (100 mM Tris (pH 7.5), 300 mM NaCl, 1 mM EDTA, 4 mM DTT) using Amicon ultra-15 (MWCO:30K, Millipore) to 2.4 mg/ml. After the addition of equal volume of glycerol and 0.04% Triton X-100, the proteins were stored aliquoted at −80° C.
Briefly, a test compound, enzyme, substrate-tetra(LRRWSLG), DTT and ATP were dissolved in Aur buffer (50 mM Tris-HCl pH 7.4, 10 mM NaCl, 10 mM MgCl2, and 100 μg/ml BSA) individually before the assay. […] 5 μM ATP (5 μl), 1 mM DTT (5 μl) and 0.1 mM tetra(LRRWSLG) peptide substrate (5 μl) were added into the reactions of test compounds and GST-tAurora A. The reactions were incubated at 37° C. for 90 min. 50 μl of Kinase-Glo Plus Reagent (V3771, Promega) was added into the reactions, followed by the incubation at 25° C. for 20 min.

[3] = read-out: IC50 (concentration of a test compound which causes 50% of the cell death), HCT-116, 96-h incubation, MTS

Row | pIC50 [2] | Compound | pIC50 [1, 3] | pIC50 ([1]; HCT-116, 96 h, read-out: IC50 (concentration of a test compound which causes 50% of the cell death), HCT-116, 96-h incubation, MTS)
1 | – | O=C(Nc1ccccc1)Nc1ccc(CCNc2ncnc3oc(-c4ccccc4)c(-c4ccccc4)c23)cc1 [Compound 6, 1-(4-(2-(5,6-diphenylfuro[2,3-d]pyrimidin-4-ylamino)ethyl)phenyl)-3-phenylurea] | 6.05 to 7.00 | –
2 | 6.40 to 7.35 and > 6.00 | O=C(Nc1ccc(CCNc2ncnc3oc(-c4ccccc4)c(-c4ccccc4)c23)cc1)Nc1cccc(F)c1 [Compound 14] | 6.05 to 7.00 | –
3 | 6.40 to 7.35 and > 6.00 | COc1ccc(-c2oc3ncnc(NCCc4ccc(NC(=O)Nc5ccccc5)cc4)c3c2-c2ccc(OC)cc2)cc1 [Compound 23] | 6.05 to 7.00 | –
4 | > 6.00 | O=C(Nc1ccccc1)Nc1ccc(CCNc2ncnc3oc(-c4ccc(O)cc4)c(-c4ccc(O)cc4)c23)cc1 [Compound 24] | 6.05 to 7.00 | –
5 | 6.40 to 7.35 and > 6.00 | O=C(Nc1ccccc1)Nc1ccc(CCNc2ncnc3sc4c(c23)CCCC4)cc1 [Compound 42, N-phenyl-N′-4-[2-(5,6,7,8-tetrahydrobenzo[4,5]thieno[2,3-d]pyrimidin-4-ylamino)ethyl]phenylurea] | 6.05 to 7.00 | –
6 | 6.40 to 7.35 and > 6.00 | O=C(Nc1ccccc1)Nc1ccc(CCNc2ncnc3oc(-c4ccccc4)c(Br)c23)cc1 [Compound 57] | 6.05 to 7.00 | –
7 | > 6.00 | CC(=O)Nc1ccc(-c2c(-c3ccccc3)oc3ncnc(NCCc4ccc(NC(=O)Nc5ccccc5)cc4)c23)cc1 [Compound 58] | 6.05 to 7.00 | –
8 | > 6.00 | O=C(Nc1ccccc1)Nc1ccc(CCNc2ncnc3oc(-c4ccccc4)c(-c4ccc(O)cc4)c23)cc1 [Compound 60] | 6.05 to 7.00 | –
9 | 6.40 to 7.35 and > 6.00 | O=C(Nc1ccc(F)cc1)Nc1ccc(CCNc2ncnc3oc(-c4ccccc4)c(-c4ccccc4)c23)cc1 [Compound 61] | 6.05 to 7.00 | –
10 | 6.40 to 7.35 and > 6.00 | O=C(Nc1ccccc1)Nc1ccc(CCNc2ncnc3oc(-c4ccccc4)cc23)cc1 [Compound 79] | 6.05 to 7.00 | –
11 | 6.40 to 7.35 and > 6.00 | CC(=O)Nc1cccc(-c2c(-c3ccccc3)oc3ncnc(NCCc4ccc(NC(=O)Nc5ccccc5)cc4)c23)c1 [Compound 80] | 6.05 to 7.00 | –
12 | > 6.00 | O=C(Nc1ccc(CCNc2ncnc3oc(-c4ccccc4)c(-c4ccccc4)c23)cc1)Nc1ccc(F)cc1F [Compound 92] | 6.05 to 7.00 | –
13 | > 6.00 | O=C(Nc1ccc(Cl)cc1)Nc1ccc(CCNc2ncnc3oc(-c4ccccc4)c(-c4ccccc4)c23)cc1 [Compound 93] | 6.05 to 7.00 | –
14 | 6.40 to 7.35 and > 6.00 | O=C(Nc1ccc(CCNc2ncnc3oc(-c4ccccc4)c(-c4ccccc4)c23)cc1)Nc1ccccc1F [Compound 96] | 6.05 to 7.00 | –
15 | 6.40 to 7.35 and > 6.00 | O=C(Nc1ccc(CCNc2ncnc3oc(-c4ccccc4)c(-c4ccccc4)c23)cc1)Nc1ccccc1[N+](=O)[O-] [Compound 97] | – | –
16 | 6.40 to 7.35 and > 6.00 | Cc1ccc(NC(=O)Nc2ccc(CCNc3ncnc4oc(-c5ccccc5)c(-c5ccccc5)c34)cc2)cc1 [Compound 98] | – | –
17 | > 6.00 | CN(C)c1ccc(NC(=O)Nc2ccc(CCNc3ncnc4oc(-c5ccccc5)c(-c5ccccc5)c34)cc2)cc1 [Compound 100] | – | –
18 | > 6.00 | CCOC(=O)c1c(-c2ccccc2)oc2ncnc(NCCc3ccc(NC(=O)Nc4ccccc4)cc3)c12 [Compound 107] | – | –
19 | > 6.00 | CN(C)Cc1ccc(NC(=O)Nc2ccc(CCNc3ncnc4oc(-c5ccccc5)c(-c5ccccc5)c34)cc2)cc1 [Compound 115] | 6.05 to 7.00 | –
20 | > 6.00 | CN1CCN(Cc2ccc(NC(=O)Nc3ccc(CCNc4ncnc5oc(-c6ccccc6)c(-c6ccccc6)c45)cc3)cc2)CC1 [Compound 118] | – | –
21 | > 6.00 and 6.40 to 7.35 | CN(C)Cc1cccc(NC(=O)Nc2ccc(CCNc3ncnc4oc(-c5ccccc5)c(-c5ccccc5)c34)cc2)c1 [Compound 119] | – | –
22 | > 6.00 | CN1CCN(Cc2cccc(NC(=O)Nc3ccc(CCNc4ncnc5oc(-c6ccccc6)c(-c6ccccc6)c45)cc3)c2)CC1 [Compound 122] | – | –
23 | > 6.00 | O=C(Nc1ccc(CCNc2ncnc3oc(-c4ccccc4)c(-c4ccccc4)c23)cc1)Nc1ccccc1CN1CCCCC1 [Compound 124] | – | –
24 | > 6.00 | CN1CCN(Cc2ccccc2NC(=O)Nc2ccc(CCNc3ncnc4oc(-c5ccccc5)c(-c5ccccc5)c34)cc2)CC1 [Compound 126] | – | –
25 | 6.40 to 7.35 and > 6.00 | O=C(Nc1ccc(CCNc2ncnc3oc(-c4ccccc4)c(-c4ccccc4)c23)cc1)Nc1ccccn1 [Compound 146] | – | –

Row | pIC50 [2] | Compound | pIC50 [1, 3] | pIC50 ([1]; HCT-116, 96 h, read-out: IC50 (concentration of a test compound which causes 50% of the cell death), HCT-116, 96-h incubation, MTS)
26 | 6.40 to 7.35 and > 6.00 | O=C(Nc1ccc(CCNc2ncnc3oc(-c4ccccc4)c(-c4ccccc4)c23)cc1)Nc1cccnc1 [Compound 147] | 6.05 to 7.00 | –
27 | > 6.00 | O=C(Nc1ccncc1)Nc1ccc(CCNc2ncnc3oc(-c4ccccc4)c(-c4ccccc4)c23)cc1 [Compound 148] | 6.05 to 7.00 | –
28 | > 6.00 | O=C(Nc1ccc(CCNc2ncnc3oc(-c4ccccc4)c(-c4ccccc4)c23)cc1)Nc1cnccn1 [Compound 151] | – | –
29 | > 6.00 | Cc1cc(NC(=O)Nc2ccc(CCNc3ncnc4oc(-c5ccccc5)c(-c5ccccc5)c34)cc2)no1 [Compound 160] | – | –
30 | > 6.00 and 6.40 to 7.35 | Cc1cc(NC(=O)Nc2ccc(CCNc3ncnc4oc(-c5ccccc5)c(-c5ccccc5)c34)cc2)on1 [Compound 161] | – | –
31 | > 6.00 and 6.40 to 7.35 | Cc1csc(NC(=O)Nc2ccc(CCNc3ncnc4oc(-c5ccccc5)c(-c5ccccc5)c34)cc2)n1 [Compound 163] | – | –
32 | > 6.00 | Cc1cnc(NC(=O)Nc2ccc(CCNc3ncnc4oc(-c5ccccc5)c(-c5ccccc5)c34)cc2)s1 [Compound 164] | – | –
33 | 6.40 to 7.35 and > 6.00 | O=C(Nc1ccccc1)Nc1ncc(CCNc2ncnc3oc(-c4ccccc4)c(-c4ccccc4)c23)s1 [Compound 171] | 6.05 to 7.00 | –
34 | > 6.00 | O=C(Nc1ccccc1)Nc1ccc(CCNc2ncnc3oc4c(c23)CCCC4)cc1 [Compound 173] | – | –
35 | > 6.00 | O=C(Nc1ccc(CCNc2ncnc3oc(-c4ccccc4)c(-c4ccccc4)c23)cc1)Nc1ccccc1Br [Compound 197] | – | –
36 | 6.40 to 7.35 and > 6.00 | CN(C)CCNC(=O)Nc1ccc(CCNc2ncnc3oc(-c4ccccc4)c(-c4ccccc4)c23)cc1 [Compound 198] | – | –
37 | 6.40 to 7.35 and > 6.00 | O=C(NCCO)Nc1ccc(CCNc2ncnc3oc(-c4ccccc4)c(-c4ccccc4)c23)cc1 [Compound 199] | – | –
38 | > 6.00 | CCOC(=O)CNC(=O)Nc1ccc(CCNc2ncnc3oc(-c4ccccc4)c(-c4ccccc4)c23)cc1 [Compound 200] | – | –
39 | > 6.00 and 6.40 to 7.35 | O=C(Nc1ccc(CCNc2ncnc3oc(-c4ccccc4)c(-c4ccccc4)c23)cc1)NC1CC1 [Compound 201] | – | –
40 | > 6.00 and 6.40 to 7.35 | O=C(Nc1ccccc1)Nc1ccc(CCNc2ncnc3occ(-c4ccccc4)c23)cc1 [Compound 203] | – | –
41 | – | CN(C)CCOc1ccc(-c2cc3c(NCCc4ccc(NC(=O)Nc5ccccc5)cc4)ncnc3o2)cc1 [Compound 207] | – | 6.05 to 7.00
42 | > 6.00 and 6.40 to 7.35 | CCOC(=O)N1CCc2c(sc3ncnc(NCCc4ccc(NC(=O)Nc5ccccc5)cc4)c23)C1 [Compound 208] | – | –
43 | > 6.00 | O=C(NCCCCl)Nc1ccc(CCNc2ncnc3oc(-c4ccccc4)c(-c4ccccc4)c23)cc1 [Compound 227] | – | –
44 | > 6.00 | O=C(Nc1ccc(CCNc2ncnc3oc(-c4ccccc4)c(Cl)c23)cc1)c1ccccc1 [Compound 228] | – | –
45 | > 6.00 | O=C(Nc1ccc(CCNc2ncnc3oc(-c4ccccc4)cc23)cc1)c1ccccc1 [Compound 229] | – | –
46 | > 6.00 | O=C(Nc1ccc(CCNc2ncnc3oc(-c4ccccc4)cc23)cc1)Nc1cccnc1 [Compound 231] | – | –
47 | > 6.00 | CN(C)CCNC(=O)Nc1ccc(CCNc2ncnc3oc(-c4ccccc4)cc23)cc1 [Compound 233] | – | –
48 | > 6.00 | CN(C)CCNC(=O)Nc1ccc(CCNc2ncnc3oc(-c4ccccc4)c(Cl)c23)cc1 [Compound 234] | – | –
49 | > 6.00 | Cc1cc(NC(=O)Nc2ccc(CCNc3ncnc4oc(-c5ccccc5)c(-c5ccccc5)c34)cc2)n[nH]1 [Compound 238] | – | –
50 | > 6.00 and 6.40 to 7.35 | CC(C)(C)OC(=O)N1CCN(CCCOc2ccc(-c3cc4c(NCCc5ccc(NC(=O)Nc6ccccc6)cc5)ncnc4o3)cc2)CC1 [Compound 242] | – | –

Row | Compound | pIC50 [2] | pIC50 [1, 3] | pIC50 ([1]; HCT-116, 96 h, read-out: IC50 (concentration of a test compound which causes 50% of the cell death), HCT-116, 96-h incubation, MTS)
51 | CN(C)Cc1ccccc1NC(=O)Nc1ccc(CCNc2ncnc3oc(-c4ccccc4)c(-c4ccccc4)c23)cc1 [Compound 123] | 6.40 to 7.35 and > 6.00 | 6.05 to 7.00 | –

Reference: patent US8138194B2, “Fused bicyclic pyrimidine compounds as aurora kinase inhibitors” (National Health Research Institutes, priority 2008, dated 2012)
